Data on 2 molecules can be found in US12497597B2, “Methods of generating and expanding hematopoietic stem cells” (CHILDREN'S HOSPITAL MEDICAL CENTER, priority 2019, dated 2025).

For test [1], the system named is Notch activity. The experiment in a line: Notch inhibition in organoid cultures with the γ-secretase inhibitor DAPT. It counts as cell-based, human.
The test system of test [2] is liver organoid cultures. The test can be described thus: Notch dependency test: DLL4 added to Matrigel drops of liver organoid culture with hematopoietic cytokines. Format: cell-based, human. How it is done:
Day 7 spheroids were collected by manual pipetting and pelleted by centrifugation. Media was aspirated and cells were embedded in 100% Matrigel by gentle pipetting to homogenize the cell pellet. Optionally, a Notch activator or ligand is added to the Matrigel (e.g. 10 μg/mL, of […]). Alternatively, optionally, UCB cells are added to the Matrigel for co-culture with organoids (e.g. 1,000 UCB cells per 75 μL of Matrigel). 250 μL Matrigel (Corning) was used per well of a 24-well plate of definitive endoderm culture. 75 μL Matrigel drops were made, 1 drop per each well of a fresh 24-well plate (VWR). The plates were placed at 37° C. in an atmosphere of 5% CO2/95% air for 5-15 minutes. After the Matrigel was solidified, Advanced DMEM/F12 with 1×B27, 1×N2, 2 mM L-glutamine, 15 mM HEPES, and 1× penicillin/streptomycin was added to the wells. This media was supplemented with 20 ng/mL BMP4 and 10 ng/mL, FGF2 for 4 days, and then the BMP4 and FGF2 were removed.
Organoids were isolated from Matrigel drops and washed with 1×PBS. HLOs were dissociated to single cells by treatment with Trypsin-EDTA (0.05%, with phenol red, Gibco) for 10 minutes. Cells were washed in DMEM/F12 with 10% FBS and suspended in PBS with 2% FBS. After filtration (e.g. through a 40-50 μm nylon filter), the single cells were subjected to flow cytometry with the following antibodies: anti-CD45-APC (Miltenyl, 130-098-143), anti-CD34-APC/Cy7 (BioLegend, 343513), anti-CD11b-PE/Cy7 (BioLegend, 301322), anti-CD19-BV421 (BioLegend, 302233), anti-CD27-AF700 (BioLegend, 356415), anti-CD43-FITC (BioLegend, 315204). For mouse engraftment experiments, anti-mouse CD45-BV421 (BioLegend, 103133) was used.
RNA was isolated using the RNeasy mini kit (Qiagen). Reverse transcription was carried out using the High-Capacity cDNA. Reverse Transcription Kit (Thermo Fisher) according to manufacturer's protocol. qPCR was carried out in duplicate using TagMan Gene Expression Master Mix (Applied Biosystems) and probes from the Universal Probe Library (Roche) on a QuantStudio 3 Real-Time PCR System (Thermo Fisher). […]

In the case of `C[C@H](NC(=O)Cc1cc(F)cc(F)c1)C(=O)N[C@H](C(=O)OC(C)(C)C)c1ccccc1` [DAPT], the HES1 expression entry in test [1] (different concentrations of DAPT, 4 days of treatment from day 6, FIG. 10C) was “decrease”. In addition, the albumin expression result in test [1] (different concentrations of DAPT, 4 days of treatment from day 6, FIG. 10D) is “maintaining albumin expression”. Besides, the visible erythrocytes entry in test [1] (light microscopy, 100 μM DAPT vs DMSO control, 12 days of treatment, FIG. 10A) was “decrease in visible erythrocytes”.
With “DLL4: Notch ligand added to the Matrigel drops during organoid seeding”, the “production of CD45+ hematopoietic cells” value in test [2] (DLL4 1-10 μg/mL in Matrigel drops at organoid seeding, medium with IL-3, IL-34, GM-CSF 100 ng/mL each, FIG. 8) was “increased the efficiency of cytokines in producing CD45^+ hematopoietic cells”. Moreover, the IL-6 expression entry in test [2] (qPCR, organoids at day 18, DLL4 plus cytokines IL-3, IL-34, GM-CSF, FIG. 9A) is “significant increase”. Besides, the albumin expression entry in test [2] (qPCR, organoids at day 18, DLL4 plus cytokines IL-3, IL-34, GM-CSF, FIG. 9B) is “modest decrease”.
